Reference: patent publication US8716242B2, “β-hairpin peptidomimetics” (priority 2009, dated 2014)
Numbered stars: 1 amine (or outer) side, 2 acyl side, 3 side chain; on linkers, the order of the positions; unused ones are H or OH. Bridge positions count the residues as written; N and C are the ends. Square brackets hold non-standard residues; d marks the D form. Side chains are listed from the residue outwards. Peptide text beside a SMILES is read from it. * marks the point of attachment. γGlu = O=C(O)[C@H](CCC(=O)[*:2])N[*:1]; Octyloxycarbonyl = CCCCCCCCOC(=O)*; Lauroyl = CCCCCCCCCCCC(=O)*; Dab = NCC[C@H](N)C(=O)O

Assays:
[1] = system: intracranial glioblastoma and medulloblastoma xenografts; details: systemic administration; cited from earlier work
[2] = target: T1, human CXCR4 (Homo sapiens, UniProt P61073); assay: Ca2+-assay: CXCR4-antagonizing activity (SDF-1 induced calcium mobilization); format: cell-based; details: mouse pre-B cell line 300-19 transfected with human CXCR4; SDF-1 induced Ca2+ mobilization; read-out: IC50% [nM] ± SD, CXCR4 receptor
T1 construct: expressed in transfected cells; host or cells: mouse pre-B cell line 300-19
Method in brief: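 Mouse pre-B 300-19 cells stably expressing human CXCR4, loaded with Calcium 4 dye in HBSS/20 mM HEPES pH 7.4/0.1% BSA for 1 h at RT. Peptides added before SDF-1; fluorescence (ex 485/em 525 nm) followed for 90 s. IC50 from four-parameter logistic fit of % maximal SDF-1 response.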

[3] = Plasma stability in human plasma; format: in vitro ADME; details: human plasma, 37° C.; for remaining at 24 h, 10 μM: 1440 min, read-out: human pl. cpd left at 1440 min; for human pl. T1/2: up to 1440 min
Method in brief: (§1)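 Peptides (1 mM DMSO/H2O stock) were spiked into human or mouse plasma in triplicate and incubated at 37 °C, sampling from 0 to 1440 min. Samples were quenched in formic acid/acetonitrile and analysed by LC/MS MRM. Remaining percent of t=0 was calculated and T1/2 derived by trend fitting.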

[4] = Cytotoxicity, MTT reduction assay, COS-7 cells; format: cell-based; details: African green monkey, COS-7 cells (CRL-1651), 12.5-50 μM
Method in brief: (§2)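 HELA (4000/well) and COS-7 (3400/well) cells were grown 24 h, then exposed 48 h at 37° C to peptides at 12.5, 25 and 50 μM in triplicate. MTT reduction read at 595 nm; growth % relative to time-zero, and GI50 interpolated by trend line.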

[5] = Plasma stability in mouse plasma; format: in vitro ADME; details: mouse plasma, 37° C.; for remaining at 24 h, 10 μM: 1440 min, read-out: mouse pl. cpd left at 1440 min; for mouse pl. T1/2: up to 1440 min
Method in brief: as §1

[6] = Cytotoxicity, MTT reduction assay, HELA cells; format: cell-based; details: human, HELA cells (Acc57), 12.5-50 μM
Method in brief: as §2

[7] = system: human red blood cells (hRBC); assay: Hemolysis of human red blood cells; format: cell-based; details: 20% hRBC, 1 h, 37° C.
Method in brief: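 Washed fresh human erythrocytes (20% v/v, ~0.9×10^9 cells/mL final) incubated with compound at 100 μM for 1 h at 37 °C with shaking. Supernatant OD540 read; % hemolysis expressed relative to 2.5% Triton X-100 lysis (100%), with PBS/0.001% acetic acid as 0%.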

T1 sequence (P61073 whole entry): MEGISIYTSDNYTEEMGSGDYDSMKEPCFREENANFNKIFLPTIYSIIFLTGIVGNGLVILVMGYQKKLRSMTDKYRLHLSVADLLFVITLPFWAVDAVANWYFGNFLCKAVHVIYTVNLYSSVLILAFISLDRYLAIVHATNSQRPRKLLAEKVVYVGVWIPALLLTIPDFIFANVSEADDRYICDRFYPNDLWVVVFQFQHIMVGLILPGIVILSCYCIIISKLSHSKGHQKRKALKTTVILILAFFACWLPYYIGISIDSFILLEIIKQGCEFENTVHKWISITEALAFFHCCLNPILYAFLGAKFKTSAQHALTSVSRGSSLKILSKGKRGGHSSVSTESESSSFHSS

Row | SMILES | growth of intracranial glioblastoma and medulloblastoma xenografts [1] | IC50 [2] | remaining at 24 h, 10 μM [3] | human pl. T1/2 [3] | GI50 at 48 h [4] | remaining at 24 h, 10 μM [5] | mouse pl. T1/2 [5] | GI50 at 48 h [6] | Hemolysis at 100 μM [7]
1 | c1cc(CN2CCCNCCNCCCNCC2)ccc1CN1CCCNCCNCCCNCC1 [AMD3100] | inhibits growth |  |  |  |  |  |  |  | 
2 | CCCCCCCCOC(=O)NC(=N)NCCC[C@@H]1NC(=O)[C@H](CCN)NC(=O)[C@H]2CCCN2C(=O)[C@H](C)NC(=O)[C@H](CO)NC(=O)[C@@H]2CSSC[C@H](NC(=O)[C@H](Cc3ccc(O)cc3)NC1=O)C(=O)N[C@@H](Cc1ccc(O)cc1)C(=O)N[C@@H](CCC(N)=O)C(=O)N[C@@H](CCCCN)C(=O)N1CCC[C@@H]1C(=O)N1CCC[C@H]1C(=O)N[C@@H](Cc1ccc(O)cc1)C(=O)N[C@@H](Cc1c[nH]cn1)C(=O)N[C@@H](Cc1ccc(O)cc1)C(=O)N2 [compound 6] (cyclo(YHYCSA[dP][Dab]R(Octyloxycarbonyl)YCYQK[dP]P); disulfide 4-11) |  | 28.5 ± 9 nM | 76% | 24 h | > 35 µM | 92% | 24 h | > 10 µM | 0.7%
3 | CCCCCCCCCCCC(=O)N[C@@H](CCC(=O)NCCCC[C@@H]1NC(=O)[C@H](Cc2ccc(O)cc2)NC(=O)[C@@H]2CSSC[C@H](NC(=O)[C@H](C)NC(=O)[C@H](Cc3c[nH]cn3)NC(=O)[C@H](Cc3ccc(O)cc3)NC(=O)[C@@H]3CCCN3C(=O)[C@H]3CCCN3C(=O)[C@H](CCCCN)NC1=O)C(=O)N[C@@H](CCCNC(=N)N)C(=O)NCC(=O)N1CCC[C@@H]1C(=O)N[C@@H](CCN)C(=O)N[C@@H](CCCNC(=N)N)C(=O)N[C@@H](Cc1ccc(O)cc1)C(=O)N2)C(=O)O [compound 27] (cyclo(YHACRG[dP][Dab]RYCYK([γGlu-Lauroyl])K[dP]P); disulfide 4-11) |  | 2.6 ± 0.7 nM | 75% | 24 h | > 50 µM | 22% | 24 h | > 48 µM | 1.6%
